How the values were obtained:
Assay type in all cases: in vivo
[1] = tested on: annual broad-leaved weeds; test: Test for herbicidal effect against paddy field weeds (Test Example 1); details: examined 3 weeks after treatment
Procedure: (§1) Preparation of Formulation of the Active Compound
(§2) • Carrier: DMF 5 parts by weight • Emulsifier: Benzyloxy polyglycol ether 1 part by weight
(§3) A formulation of an active compound is obtained as an emulsifiable concentrate by mixing 1 part by weight of the active compound with the above-mentioned amount of the carrier and emulsifier. A prescribed amount of the formulation is diluted with water.
(§4) In a green house seeds or tubers of Scirpus juncoides Roxburgh, Monochoria vaginalis Presi, annual broad-leaved weeds (Lindemia procumbens Philcox, Rotala indica Koehne, Elatine triandra Schk, Ammannia multiflora Roxb., etc.), Cyperus serotinus Rottboel were inoculated in a 500 cm^2 pot filled with paddy field soil. Then water was poured to a depth of about 2-3 cm. Five days and 13 days after inoculation, a prescribed, diluted solution of the formulation of each active compound, prepared according to the aforementioned preparation method, was applied to the surface of water. After the treatment the water depth of 3 cm was maintained and the herbicidal effect was examined after 3 weeks from the treatment.
(§5) The herbicidal effect was rated 100% in the case of complete death and as 0% in the case of no herbicidal effect. In case of showing higher than 80% herbicidal effect, it is evaluated as practical as herbicide.

[2] = tested on: Cyperus serotinus Rottboel; test: as above; details: examined 3 weeks after treatment
Procedure: as §1, §2, §3, §4, §5

[3] = tested on: Scirpus juncoides Roxburgh; test: as above; details: examined 3 weeks after treatment
Procedure: as §1, §2, §3, §4, §5

[4] = tested on: Monochoria vaginalis Presi; test: as above; details: examined 3 weeks after treatment
Procedure: as §1, §2, §3, §4, §5

[5] = tested on: direct-seedling rice var. Nipponbare; test: Test for phytotoxicity to direct-seedling rice (Test Example 5); details: 50 g ai/ha; spray at two leaf-stage of rice; evaluated 2 weeks after treatment
Text: (§6) In a greenhouse seeds of Scirpus juncoides Roxburgh, Monochoria vaginalis Presi, Cyperus difformis L., annual broad-leaved weeds (Lindernia procumbens Philcox, Rotala indica Koehne, Elatine triandra Schk, Ammannia multiflora Roxb.) and rice (var.: Nipponbare and RD-23) were inoculated in a 500 cm^2 pot filled with paddy field soil. Then water was poured to a depth of about 0 to about 0.5 cm, to be a wet condition. At two leaf-stage of rice, a prescribed, diluted solution of the formulation of each active compound, prepared in the same manner as the above-mentioned Test Example 1, was sprayed over the pots with plants. At 2 days after the treatment, the water depth of 3 cm was maintained and the herbicidal effect and rice injury was evaluated at 3 weeks and 2 weeks after the treatment, respectively.
(§7) The herbicidal effect and rice injury were rated 100% in the case of complete death and as 0% in the case of no effect or injury. In case of showing higher than 80% herbicidal effect and less than 20% injury, it is evaluated as practical as rice herbicide.

[6] = tested on: direct-seedling rice var. RD-23; test: as above; details: 50 g ai/ha; spray at two leaf-stage of rice; evaluated 2 weeks after treatment
Text: as §6, §7

[7] = tested on: annual broad-leaved weeds; test: Herbicidal effect against paddy field weeds, spray at two leaf-stage of rice (Test Example 5); details: 50 g ai/ha, evaluated 3 weeks after treatment
Text: as §6, §7

[8] = tested on: Scirpus juncoides Roxburgh; test: as above; details: 50 g ai/ha, evaluated 3 weeks after treatment
Text: as §6, §7

[9] = tested on: Cyperus difformis L.; test: as above; details: 50 g ai/ha, evaluated 3 weeks after treatment
Text: as §6, §7

[10] = tested on: Monochoria vaginalis Presi; test: as above; details: 50 g ai/ha, evaluated 3 weeks after treatment
Text: as §6, §7

[11] = tested on: sulfonylurea resistant Scirpus juncoides Roxburgh (collected in Iwamizawa area, Hokkaido); test: Test for herbicidal effect against sulfonylurea resistant weeds (Test Example 3); details: applied at beginning of emergence, examined 3 weeks after treatment
Text: (§8) In a green house seeds of Scirpus juncoides Roxburgh (collected in Iwamizawa area, Hokkaido), Lindernia procumbens Philcox (collected in Kazo area, Saitama Pref.), Lindernia procumbens Philcox (collected in Higashi-Hiroshima area, Hiroshima Pref.), Elatine triandra Schk (collected in Kazo area, Saitama Pref.), all of which were confirmed as sulfonylurea resistant, were inoculated in a 20 cm^2 cup filled with paddy field soil. Then water was poured to a depth of about 2 to 3 cm. At the beginning of emergence of each weed, a prescribed, diluted solution of the formulation of each active compound prepared in the same manner as the above-mentioned Test Example 1 was applied to the surface of water. After the treatment the water depth of 3 cm was maintained and the herbicidal effect was examined after 3 weeks from the treatment. The evaluation of the herbicidal effect was conducted in the same manner as the above-mentioned Test Example 1. In case of showing higher than 80% herbicidal effect, it is evaluated as practical as herbicide. In consideration of the possibility that the biological properties including herbicide resistance of the plants grown in different areas might be different, sulfonylurea resistant Lindernia procumbens Philcox collected in two different areas were used in the present tests. The study results with the compounds No. 1, 3, 11 and 17 and the comparative compound No. C-1 as specific examples are shown in the following Table 6.

[12] = tested on: sulfonylurea resistant Lindernia procumbens Philcox (collected in Kazo area, Saitama Pref.); test: as above; details: applied at beginning of emergence, examined 3 weeks after treatment
Text: as §8

[13] = tested on: transplanted rice (var. Nipponbare); test: Test for phytotoxicity to transplanted rice (Test Example 4); details: 60 g ai/ha, application 5 days after transplanting, examined 2 weeks after treatment; for phytotoxicity to transplanted rice depth 0 cm: planting depth 0 cm; for phytotoxicity to transplanted rice depth 0.5 cm: planting depth 0.5 cm; for phytotoxicity to transplanted rice depth 2 cm: planting depth 2 cm
Procedure: The phytotoxicity to transplanted rice was evaluated under the conditions with more shallow planting depths than usual depth of 2 cm, simulating the severe condition for herbicides to cause rice injury in the paddy. In a greenhouse 2 to 2.5 leaf-stage of rice (var. Nipponbare) was transplanted at three different depths, in a 1000 cm^2 pot filled with paddy field soil. Then water was poured to a depth of about 2 to about 3 cm. Five days after transplanting, a prescribed, diluted solution of the formulation of each active compound, prepared in the same manner as the above-mentioned Test Example 1, was applied to the surface of water. After the treatment the water depth of 3 cm was maintained and the rice injury was examined after 2 weeks from the treatment. The rice injury was rated 100% in the case of complete death and as 0% in the case of no injury. In case of showing less than 20% injury, it is evaluated as practical as rice herbicide.

[14] = tested on: annual broad-leaved weeds; test: Test for residual effectiveness against paddy field weeds (Test Example 2); details: 60 g ai/ha; period of maintaining herbicidal effect of higher than 80%
Text: (§9) In a green house a 1000 cm^2 pot was filled with paddy field soil and water was poured to a depth of about 2 to 3 cm. A prescribed, diluted solution of the above-mentioned Test Example 1, was applied to the surface of water. After the prescribed time after the treatment (just after treatment, 1 week, 2 weeks, 3 weeks, 4 weeks, 5 weeks, 6 weeks and 7 weeks after treatment), seeds or tubers of the weeds to be tested Scirpus juncoides Roxburgh, Monochoria vaginalis Presi, annual broad-leaved weeds (Lindernia procumbens Philcox, Rotala indica Koehne, Elatine triandra Schk, Ammannia multiflora Roxb., etc.), Cyperus serotinus Rottboel and Sagittaria pygmaea Miq. were inoculated. Three weeks after the inoculation each herbicidal effect was examined.
(§10) The evaluation of the residual effectiveness was shown as the period (number of weeks) of maintaining herbicidal effect of higher than 80%, after the evaluation of herbicidal effect had been conducted in the similar manner as the above-mentioned Test Example 1.

[15] = tested on: Sagittaria pygmaea Miq.; test: as above; details: 60 g ai/ha; period of maintaining herbicidal effect of higher than 80%
Text: as §9, §10

[16] = tested on: Scirpus juncoides Roxburgh; test: as above; details: 60 g ai/ha; period of maintaining herbicidal effect of higher than 80%
Text: as §9, §10

[17] = tested on: Monochoria vaginalis Presi; test: as above; details: 60 g ai/ha; period of maintaining herbicidal effect of higher than 80%
Text: as §9, §10

[18] = 30 g ai/ha, application 5 days after inoculation
[19] = 30 g ai/ha, application 13 days after inoculation
[20] = 60 g ai/ha, application 5 days after inoculation
[21] = 60 g ai/ha, application 13 days after inoculation

COc1cc(OC)nc(C(O)c2cccc(Cl)c2NS(=O)(=O)C(F)F)n1 (centres unmarked) [Compound 3, 2-chloro-6-[(4,6-dimethoxypyrimidin-2-yl)hydroxymethyl]-N-difluoromethanesulfonanilide]
100%: herbicidal effect broad-leaved weeds [1, 18] | herbicidal effect broad-leaved weeds [1, 19] | herbicidal effect Cyperus serotinus [2, 18] | herbicidal effect Cyperus serotinus [2, 19] | herbicidal effect Scirpus juncoides [3, 18] | herbicidal effect Scirpus juncoides [3, 19] | herbicidal effect Monochoria vaginalis [4, 18] | herbicidal effect Monochoria vaginalis [4, 19] | herbicidal effect broad-leaved weeds [7] | herbicidal effect Scirpus juncoides [8] | herbicidal effect Cyperus difformis L. [9] | herbicidal effect Monochoria vaginalis [10] | herbicidal effect against sulfonylurea resistant weeds Scirpus juncoides (collected in Iwamizawa area, Hokkaido) ([11]; 30 g ai/ha) | herbicidal effect against sulfonylurea resistant weeds Scirpus juncoides (collected in Iwamizawa area, Hokkaido) ([11]; 60 g ai/ha) | herbicidal effect against sulfonylurea resistant weeds Lindernia procumbens (collected in Kazo area, Saitama Pref.) ([12]; 30 g ai/ha) | herbicidal effect against sulfonylurea resistant weeds Lindernia procumbens (collected in Kazo area, Saitama Pref.) ([12]; 60 g ai/ha)
10%: Phytotoxicity to direct-seedling rice RD-23 [6]
20%: Phytotoxicity to direct-seedling rice Nipponbare [5]

COc1cc(OC)nc(Cc2cccc(Cl)c2NS(=O)(=O)C(F)F)n1 [Compound 11, 2-chloro-6-[(4,6-dimethoxypyrimidin-2-yl)methyl]-N-difluoromethanesulfonanilide]
100%: herbicidal effect broad-leaved weeds [1, 20] | herbicidal effect broad-leaved weeds [1, 21] | herbicidal effect Cyperus serotinus [2, 20] | herbicidal effect Scirpus juncoides [3, 20] | herbicidal effect Scirpus juncoides [3, 21] | herbicidal effect Monochoria vaginalis [4, 20] | herbicidal effect Monochoria vaginalis [4, 21] | herbicidal effect broad-leaved weeds [7] | herbicidal effect Cyperus difformis L. [9] | herbicidal effect Monochoria vaginalis [10] | herbicidal effect against sulfonylurea resistant weeds Scirpus juncoides (collected in Iwamizawa area, Hokkaido) ([11]; 30 g ai/ha) | herbicidal effect against sulfonylurea resistant weeds Scirpus juncoides (collected in Iwamizawa area, Hokkaido) ([11]; 60 g ai/ha) | herbicidal effect against sulfonylurea resistant weeds Lindernia procumbens (collected in Kazo area, Saitama Pref.) ([12]; 30 g ai/ha) | herbicidal effect against sulfonylurea resistant weeds Lindernia procumbens (collected in Kazo area, Saitama Pref.) ([12]; 60 g ai/ha)
90%: herbicidal effect Scirpus juncoides [8]
4 week: period showing sufficient residual herbicidal effectiveness broad-leaved weeds [14] | period showing sufficient residual herbicidal effectiveness Sagittaria pygmaea [15] | period showing sufficient residual herbicidal effectiveness Scirpus juncoides [16]
15%: phytotoxicity to transplanted rice depth 0 cm [13] | phytotoxicity to transplanted rice depth 0.5 cm [13]
95%: herbicidal effect Cyperus serotinus [2, 21]
3 week: period showing sufficient residual herbicidal effectiveness Monochoria vaginalis [17]
10%: phytotoxicity to transplanted rice depth 2 cm [13] | Phytotoxicity to direct-seedling rice Nipponbare [5] | Phytotoxicity to direct-seedling rice RD-23 [6]

COc1cc(OC)nc(C(=O)c2cccc(F)c2NS(=O)(=O)C(F)F)n1 [Compound 17, 2-fluoro-6-[(4,6-dimethoxypyrimidin-2-yl)carbonyl]-N-difluoromethanesulfonanilide]
95%: herbicidal effect against sulfonylurea resistant weeds Lindernia procumbens (collected in Kazo area, Saitama Pref.) ([12]; 30 g ai/ha)
100%: herbicidal effect broad-leaved weeds [1, 18] | herbicidal effect broad-leaved weeds [1, 19] | herbicidal effect Cyperus serotinus [2, 18] | herbicidal effect Cyperus serotinus [2, 19] | herbicidal effect Scirpus juncoides [3, 18] | herbicidal effect Scirpus juncoides [3, 19] | herbicidal effect Monochoria vaginalis [4, 18] | herbicidal effect Monochoria vaginalis [4, 19] | herbicidal effect against sulfonylurea resistant weeds Scirpus juncoides (collected in Iwamizawa area, Hokkaido) ([11]; 30 g ai/ha) | herbicidal effect against sulfonylurea resistant weeds Scirpus juncoides (collected in Iwamizawa area, Hokkaido) ([11]; 60 g ai/ha) | herbicidal effect against sulfonylurea resistant weeds Lindernia procumbens (collected in Kazo area, Saitama Pref.) ([12]; 60 g ai/ha)

COCc1cccc(C(O)c2nc(OC)cc(OC)n2)c1NS(=O)(=O)C(F)F (centres unmarked) [Compound C-2, reference compound]
90%: herbicidal effect Scirpus juncoides [8]
3 week: period showing sufficient residual herbicidal effectiveness Sagittaria pygmaea [15]
2 week: period showing sufficient residual herbicidal effectiveness broad-leaved weeds [14] | period showing sufficient residual herbicidal effectiveness Scirpus juncoides [16] | period showing sufficient residual herbicidal effectiveness Monochoria vaginalis [17]
40%: phytotoxicity to transplanted rice depth 0 cm [13]
50%: Phytotoxicity to direct-seedling rice Nipponbare [5]
100%: herbicidal effect broad-leaved weeds [7] | herbicidal effect Cyperus difformis L. [9] | herbicidal effect Monochoria vaginalis [10]
30%: phytotoxicity to transplanted rice depth 0.5 cm [13] | phytotoxicity to transplanted rice depth 2 cm [13] | Phytotoxicity to direct-seedling rice RD-23 [6]
